Values of other authors as cited in EP1656939A1 (Pooger Properties Limited, priority 2004, dated 2006).

Tests used:
[1] = tested on: Ehrlich-carcinoma- and sarcoma-180-bearing mice; conditions: photoperiod alternated between LD 14:10 and DL 10:14 every 3 days
[2] = tested on: chemically induced mammary tumors

Which “half-life of endogenous melatonin in the serum” value (endogenous melatonin, serum) does the source give for COc1ccc2[nH]cc(CCNC(C)=O)c2c1 [melatonin, N-acetyl-5-methoxytryptamine] here?
Its value is 30 to 50 min.

And the “cleared in a single passage through the liver” value (single passage through the liver)?
The value was “Approximately 90%”.

What about the “reduction of survival and acceleration of tumor growth” value [1] of the same molecule?
Its value is “reversed”.

What about the “promotion of chemically induced mammary tumors” value ([2]; in vivo) of the same molecule?
The value was “inhibits”.

And the antitumor activity ([2]; rodents)?
The antitumor activity was “significant antitumor activity”.
